# From article PMC3049593 (British Journal of Cancer, 2011)
# Assays:
# HepG2 tumours = test: HepG2 liver xenograft model; format: in vivo, nude mice
# Procedure: In the orthotopic Hep3b2.1-7 human liver cancer model, treatment of mice (n=10) began 14 days after inoculation of 2.5 × 10^6 cells. […] To initiate tumour xenografts, MDA-MB-231, PC3, Cal27 and HepG2 cells were injected s.c. into nude mice (n=8) at 4, 5, 2 and 2 × 10^7 cells ml^−1, respectively. […] In the B16F0 lung metastasis model, 2 × 10^5 cells were injected via the tail vein of C57Bl6 mice (n=8). […] Surface lung macrometastases were counted for each group (n=9) upon study termination. In the intrasplenic HT-29 xenograft model, 1 × 10^6 cells in 100 μl were injected into the spleen. […] Solid tumours were measured in two dimensions (length and width) and the tumour volume (cm^3) was calculated using the equation: V=length × width^2 × π/6. The anti-tumour activity was expressed as percent tumour growth inhibition (%TGI). Further details are available in Supplementary Methods. […]
# antibody. […]
# (§1) staining. For quantification, three independent visual fields (20x magnification) were chosen and positive stained spots or vessels with identifiable lumen were counted.
# (§2) Angiogenesis inhibition and induction were calculated using the equations: […]
# regimen both before and after tumour cell inoculation (days -6, -3, 0, +3, +6) or only after tumour cell inoculation (days 0, +3, +6). B16 cell (2x105) were inoculated via tail vein injections and mice were culled and assessed for lung metastases on day 12. […]
# [1] = tested on: FGF2-induced vascularisation of AngioSponge; test: AngioSponge in vivo angiogenesis model (CD31/PECAM-1 staining); design: species or system mice; settings: s.c. daily or twice-weekly, 10 days
# Procedure: Angiogenesis in vivo was evaluated using the Angiosponge model in which subcutaneously implanted, agarose-captured FGF2 gelfoam sterile sponges (Pfizer, West Ryde, Australia) induces vascularisation over a 10-day period responsive to angiogenesis inhibition as determined by the number of vessels with identifiable lumen that stained positive for CD31/PECAM-1, an antigen present specifically on endothelial cells ([McCarty et al, 2002]). PG545 was administered s.c. on the flank distal to the AngioSponge implant. This method was also used to examine five medium-sized primary tumours from each group of Lewis Lung Carcinoma (LL/2)-bearing mice.
# Cell lines, cell culture, reagents and compounds
# Tumour cell lines were cultured in RPMI1640 or DMEM cell culture medium (Invitrogen, Mt Waverley, Australia), 10% foetal bovine serum (Invitrogen or Hyclone/Quantum Scientific), 100 IU/mL penicillin (Invitrogen), 100 µ g/mL streptomycin (Invitrogen or Sigma-Aldrich, Castle Hill, Australia). […]
# as §1, §2
compound,measurement,setting,value
CC(C)CCC[C@@H](C)[C@H]1CCC2C3CCC4C[C@@H](O[C@@H]5O[C@H](COS(=O)(=O)[O-])[C@@H](O[C@H]6O[C@H](COS(=O)(=O)[O-])[C@@H](O[C@H]7O[C@H](COS(=O)(=O)[O-])[C@@H](O[C@H]8O[C@H](COS(=O)(=O)[O-])[C@@H](OS(=O)(=O)[O-])[C@H](OS(=O)(=O)[O-])[C@H]8OS(=O)(=O)[O-])[C@H](OS(=O)(=O)[O-])[C@H]7OS(=O)(=O)[O-])[C@H](OS(=O)(=O)[O-])[C@H]6OS(=O)(=O)[O-])[C@H](OS(=O)(=O)[O-])[C@H]5OS(=O)(=O)[O-])CC[C@]4(C)C3CC[C@@]21C.[Na+].[Na+].[Na+].[Na+].[Na+].[Na+].[Na+].[Na+].[Na+].[Na+].[Na+].[Na+].[Na+] (stereo partly drawn) [PG545],TGI,HepG2 tumours; 20 mg kg^−1 once-weekly s.c.,55%
same,TGI,HepG2 tumours; 20 mg kg^−1 twice-weekly s.c.,45%
same,inhibition of CD31 staining,[1],Significant inhibition of CD31 staining
